Measured values taken from ChEMBL document CHEMBL1773013, “Malyngamide 3 and cocosamides A and B from the marine cyanobacterium Lyngbya majuscula from Cocos Lagoon, Guam” (J Nat Prod, 2011).

Tests used:
MCF7 = assay: Cytotoxicity against human MCF7 cells assessed as cell viability after 48 hrs by MTT assay; type: functional, cell-based; conditions: MCF7, 48 h
HT-29 = assay: Cytotoxicity against human HT-29 cells assessed as cell viability after 48 hrs by MTT assay; type: functional, cell-based; conditions: HT-29, 48 h

SMILES | IC50 (MCF7) [µM] | IC50 (HT-29) [µM]
CCCCCCC[C@@H](C/C=C/CCC(=O)N(C)C/C(=C\Cl)CC(=O)CC(=O)NC[C@H](O)CC(=O)OC)OC [MALYNGAMIDE 3] | 29 | 48
C=CCCC[C@@H]1OC(=O)CNC(=O)[C@H](Cc2ccccc2)N(C)C(=O)[C@@H]2CCCN2C(=O)[C@H](Cc2ccccc2)N(C)C(=O)[C@H](C(C)C)NC(=O)C1(C)C [COCOSAMIDE A] | 30 | 24
C#CCCC[C@@H]1OC(=O)CNC(=O)[C@H](Cc2ccccc2)N(C)C(=O)[C@@H]2CCCN2C(=O)[C@H](Cc2ccccc2)N(C)C(=O)[C@H](C(C)C)NC(=O)C1(C)C [COCOSAMIDE B] | 39 | 11
CC(=O)O[C@H]1C(=O)[C@@]2(C)[C@H]([C@H](OC(=O)c3ccccc3)[C@]3(O)C[C@H](OC(=O)[C@H](O)[C@@H](NC(=O)c4ccccc4)c4ccccc4)C(C)=C1C3(C)C)[C@]1(OC(C)=O)CO[C@@H]1C[C@@H]2O [PACLITAXEL] | 0.006 | 0.007
